{"source": "patent US9499538B2", "about": "“Estrogen receptor modulators and uses thereof” (Seragon Pharmaceuticals, Inc., priority 2012, dated 2016)", "key": {"MCF-7 cells": {"test_system": "MCF-7 cells", "test": "Breast Cancer Cell Viability Assays (MCF-7, CellTiter-Glo)", "type": "cell-based", "settings": "5 days' compound exposure; for IC50: Homo sapiens, MCF7, 120 h", "procedure": "MCF-7 cells were adjusted to a concentration of 20,000 cells per mL in RPMI containing 10% FBS and 20 mM HEPES. 16 microliters of the cell suspension (320 cells) was added to each well of a 384 well plate, and the cells were incubated overnight to allow the cells to adhere. The following day an eleven point, serial semilog dilution of each compound was added to the cells in 16 μL at a final concentration ranging from 0.3-0.000003 μM. After 5 days' compound exposure, 16 μL of CellTiter-GLo (Promega, Madison Wis.) was added to the cells, and the relative luminescence units (RLUs) of each well were determined. CellTiter-Glo added to 32 μL of medium without cells was used to obtain a background value. The Percent viability of each sample was determined as follows: (RLU sample−RLU background/RLU untreated cells−RLU background)×100=% viability. […]"}, "ER-α in MCF-7 cells": {"molecular_target": "T1, ER-α in MCF-7 cells (Homo sapiens, UniProt P03372)", "T1 construct": "endogenous in cells; host or cells: MCF-7", "T1 sequence (P03372 1-595)": "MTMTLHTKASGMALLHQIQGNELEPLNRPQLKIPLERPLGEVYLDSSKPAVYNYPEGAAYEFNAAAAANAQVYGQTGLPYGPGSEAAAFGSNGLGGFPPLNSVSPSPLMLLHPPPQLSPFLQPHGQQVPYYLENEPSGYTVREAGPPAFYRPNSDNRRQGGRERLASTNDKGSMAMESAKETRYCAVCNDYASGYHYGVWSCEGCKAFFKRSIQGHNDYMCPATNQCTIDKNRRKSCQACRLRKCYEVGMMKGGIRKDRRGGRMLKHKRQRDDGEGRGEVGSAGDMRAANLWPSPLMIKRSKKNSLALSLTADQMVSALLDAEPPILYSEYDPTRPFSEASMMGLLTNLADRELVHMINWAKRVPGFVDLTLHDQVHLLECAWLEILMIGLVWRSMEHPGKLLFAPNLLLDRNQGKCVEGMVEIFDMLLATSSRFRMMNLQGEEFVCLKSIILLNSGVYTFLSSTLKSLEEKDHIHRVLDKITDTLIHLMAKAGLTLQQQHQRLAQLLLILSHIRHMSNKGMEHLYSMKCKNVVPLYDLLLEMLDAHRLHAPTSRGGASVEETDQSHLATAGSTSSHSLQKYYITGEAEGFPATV", "test": "Breast Cancer Cell ER-α In Cell Western Assay (SP1)", "type": "cell-based", "settings": "4 or 24 hr post compound addition; for Emax: MCF7, SP1 antibody, read-out: ER-α In Cell Western Assay (SP1) Max Response; for DC50: SP1 antibody, read-out: ER-α In Cell Western Assay (SP1) IC50", "procedure": "MCF-7 cells were adjusted to a concentration of 200,000 cells per mL in RPMI containing 10% charcoal-stripped FBS and 20 mM HEPES. 16 microliters of the cell suspension (3200 cells) was added to each well of a poly-D-lysine 384 well plate, and the cells were incubated overnight to allow the cells to adhere. The following day an eleven point, serial semilog dilution of each compound was added to the cells in 16 μL at a final concentration ranging from 0.3-0.000003 μM. At 4 or 24 hr post compound addition, the cells were fixed (10% formalin in PBS) for 20 minutes. Cells were permeablized in PBS 0.1% Triton and blocked with LICOR blocking buffer (50 μl/well, 90′). The wells were then incubated overnight at 4° C. with SP1 rabbit monoclonal Ab (Thermo Scientific) diluted 1:1000 in LICOR blocking buffer/0.1% Tween-20. Wells which were treated with blocking buffer with Tween but no antibody were used as a background control. Wells were washed with 0.1% Tween-20/PBS and then incubated in goat anti-rabbit IRDye™ 800CW (LICOR Inc.; 1:10000) and DRAQ5 DNA dye (1:2000 for 2 mM stock) diluted in LICOR blocking buffer containing 0.1% Tween-20 and 0.01% SDS for 60 minutes. Cells were washed (50 μl/well, 5′ each) in 0.1% Tween-20/PBS. Plates were scanned on a LICOR Odyssey infrared imaging system. Integrated intensities in the 800 nm channel and 700 nm channel were measured to determine levels of ER and DNA respectively. Percent ER levels were determined as follows: (Integrated intensity 800 nm sample/integrated intensity 700 nm sample)/(Integrated intensity 800 nm untreated cells/integrated intensity 700 nm untreated cells)×100=% ER levels. […]"}}}
{"smiles": "Cc1cnccc1/C(=C(\\c1ccc(/C=C/c2nnn[nH]2)cc1)c1ccc2scnc2c1)C1CCC1", "note": "[Example 177, 5-((E)-1-(4-((E)-2-(2H-Tetrazol-5-yl)vinyl)phenyl)-2-cyclobutyl-2-(3-methylpyridin-4-yl)vinyl)benzo[d]thiazole]", "values": [{"measurement": "MCF7 Viability Assay Max Response", "setting": "MCF-7 cells", "result": "++ (++ = a single % value ≧ 40%)"}, {"measurement": "IC50", "setting": "MCF-7 cells", "result": "≤ 0.1", "unit": "µM"}, {"measurement": "Emax", "setting": "ER-α in MCF-7 cells", "result": "≥ 40", "unit": "%"}, {"measurement": "DC50", "setting": "ER-α in MCF-7 cells", "result": "≤ 0.1", "unit": "µM"}]}
{"smiles": "N#Cc1cnccc1/C(=C(\\c1ccc(/C=C/C(=O)O)cc1)c1ccc2[nH]nc(F)c2c1)C1CCC1", "note": "[Example 74, (E)-3-(4-((E)-2-(3-Cyanopyridin-4-yl)-2-cyclobutyl-1-(3-fluoro-1H-indazol-5-yl)vinyl)phenyl)acrylic acid]", "values": [{"measurement": "MCF7 Viability Assay Max Response", "setting": "MCF-7 cells", "result": "++ (++ = a single % value ≧ 40%)"}, {"measurement": "IC50", "setting": "MCF-7 cells", "result": "≤ 0.1", "unit": "µM"}, {"measurement": "Emax", "setting": "ER-α in MCF-7 cells", "result": "≥ 40", "unit": "%"}, {"measurement": "DC50", "setting": "ER-α in MCF-7 cells", "result": "≤ 0.1", "unit": "µM"}]}
{"smiles": "O=C(O)/C=C/c1ccc(/C(=C(\\c2ccc(F)cc2Cl)C2CCC2)c2cccc3[nH]ncc23)cc1", "note": "[Example 80, (E)-3-(4-((E)-2-(2-Chloro-4-fluorophenyl)-2-cyclobutyl-1-(1H-indazol-4-yl)vinyl)phenyl)acrylic acid]", "values": [{"measurement": "MCF7 Viability Assay Max Response", "setting": "MCF-7 cells", "result": "++ (++ = a single % value ≧ 40%)"}, {"measurement": "IC50", "setting": "MCF-7 cells", "result": "≤ 0.1", "unit": "µM"}, {"measurement": "Emax", "setting": "ER-α in MCF-7 cells", "result": "≥ 40", "unit": "%"}, {"measurement": "DC50", "setting": "ER-α in MCF-7 cells", "result": "≤ 0.1", "unit": "µM"}]}
{"smiles": "O=C(O)/C=C/c1ncc(/C(=C(\\c2ccccc2)C2CCC2)c2ccc3[nH]nc(F)c3c2)cn1", "note": "[Example 162, (E)-3-(5-((Z)-2-Cyclobutyl-1-(3-fluoro-1H-indazol-5-yl)-2-phenylvinyl)pyrimidin-2-yl)acrylic acid]", "values": [{"measurement": "MCF7 Viability Assay Max Response", "setting": "MCF-7 cells", "result": "++ (++ = a single % value ≧ 40%)"}, {"measurement": "IC50", "setting": "MCF-7 cells", "result": "> 0.1", "unit": "µM"}, {"measurement": "Emax", "setting": "ER-α in MCF-7 cells", "result": "≥ 40", "unit": "%"}, {"measurement": "DC50", "setting": "ER-α in MCF-7 cells", "result": "> 0.1", "unit": "µM"}]}
{"smiles": "COc1cc(/C(=C(\\c2ccc(/C=C/C(=O)O)cc2)c2ccc3[nH]nc(F)c3c2)C2CCC2)ccn1", "note": "[Example 81, (E)-3-(4-((E)-2-Cyclobutyl-1-(3-fluoro-1H-indazol-5-yl)-2-(2-methoxypyridin-4-yl)vinyl)phenyl)acrylic acid]", "values": [{"measurement": "MCF7 Viability Assay Max Response", "setting": "MCF-7 cells", "result": "++ (++ = a single % value ≧ 40%)"}, {"measurement": "IC50", "setting": "MCF-7 cells", "result": "≤ 0.1", "unit": "µM"}, {"measurement": "Emax", "setting": "ER-α in MCF-7 cells", "result": "≥ 40", "unit": "%"}, {"measurement": "DC50", "setting": "ER-α in MCF-7 cells", "result": "≤ 0.1", "unit": "µM"}]}
{"smiles": "CC/C(=C(/c1ccc(/C=C/C(=O)O)cc1)c1ccc2[nH]ncc2c1)c1cccc(S(=O)(=O)C(F)(F)F)c1", "note": "[Example 41, (E)-3-(4-((E)-1-(1H-Indazol-5-yl)-2-(3-((trifluoromethyl)sulfonyl)phenyl)but-1-en-1-yl)phenyl)acrylic acid]", "values": [{"measurement": "MCF7 Viability Assay Max Response", "setting": "MCF-7 cells", "result": "++ (++ = a single % value ≧ 40%)"}, {"measurement": "IC50", "setting": "MCF-7 cells", "result": "≤ 0.1", "unit": "µM"}, {"measurement": "Emax", "setting": "ER-α in MCF-7 cells", "result": "≥ 40", "unit": "%"}, {"measurement": "DC50", "setting": "ER-α in MCF-7 cells", "result": "≤ 0.1", "unit": "µM"}]}
{"smiles": "O=C(O)/C=C/c1ccc(/C(=C(\\c2ccccc2)C2CCC2)c2ccc3[nH]nnc3c2)cc1", "note": "[Example 17, (E)-3-(4-((E)-1-(1H-Benzo[d][1,2,3]triazol-5-yl)-2-cyclobutyl-2-phenylvinyl)phenyl)acrylic acid]", "values": [{"measurement": "MCF7 Viability Assay Max Response", "setting": "MCF-7 cells", "result": "++ (++ = a single % value ≧ 40%)"}, {"measurement": "IC50", "setting": "MCF-7 cells", "result": "≤ 0.1", "unit": "µM"}, {"measurement": "Emax", "setting": "ER-α in MCF-7 cells", "result": "≥ 40", "unit": "%"}, {"measurement": "DC50", "setting": "ER-α in MCF-7 cells", "result": "≤ 0.1", "unit": "µM"}]}
{"smiles": "N#Cc1cc(Cl)ccc1/C(=C(\\c1ccc(/C=C/C(=O)O)cc1)c1ccc2nccn2c1)C1CCC1", "note": "[Example 227, (E)-3-(4-((E)-2-(4-Chloro-2-cyanophenyl)-2-cyclobutyl-1-(imidazo[1,2-a]pyridin-6-yl)vinyl)phenyl)acrylic acid]", "values": [{"measurement": "MCF7 Viability Assay Max Response", "setting": "MCF-7 cells", "result": "++ (++ = a single % value ≧ 40%)"}, {"measurement": "IC50", "setting": "MCF-7 cells", "result": "≤ 0.1", "unit": "µM"}, {"measurement": "Emax", "setting": "ER-α in MCF-7 cells", "result": "≥ 40", "unit": "%"}, {"measurement": "DC50", "setting": "ER-α in MCF-7 cells", "result": "≤ 0.1", "unit": "µM"}]}
{"smiles": "O=C(O)/C=C/c1ccc(/C(=C(\\c2ccnc(O)c2)C2CCC2)c2ccc3[nH]nc(F)c3c2)cc1", "note": "[Example 214, (E)-3-(4-((E)-2-Cyclobutyl-1-(3-fluoro-1H-indazol-5-yl)-2-(2-hydroxypyridin-4-yl)vinyl)phenyl)acrylic acid]", "values": [{"measurement": "MCF7 Viability Assay Max Response", "setting": "MCF-7 cells", "result": "+ (+ = a single % value < 40%)"}, {"measurement": "IC50", "setting": "MCF-7 cells", "result": "> 0.1", "unit": "µM"}, {"measurement": "Emax", "setting": "ER-α in MCF-7 cells", "result": "≥ 40", "unit": "%"}, {"measurement": "DC50", "setting": "ER-α in MCF-7 cells", "result": "> 0.1", "unit": "µM"}]}
